The target of test [1] is T1, aggregated Aβ42 peptides (Homo sapiens, UniProt P05067).
T1 construct: preaggregated Aβ(1-42) peptides
As to the kind of experiment: Apparent binding constant (Kd) of probes 27-31, 33 by fluorescence intensity vs concentration. Particulars: probe 1.25, 2.5, 5.0, 10 μM in nano-pure water, 5 μM pre-aggregated Aβ42. The procedure: We also measured the apparent binding constants (Kd) of the probes to aggregated Aβ42 peptides. The fluorescent intensity of each probe was measured in concentrations of 1.25, 2.5, 5.0 and 10 μM in nano-pure water, mixed with 5 μM of the pre-aggregated Aβ42 peptides. Zhao, X.; Yang, J., ACS Chem. Neurosc. 1, (10), 655-660. […] On the other hand, a decrease of the Kd value was observed upon chemically altering the electron donor of the ANCA scaffold. […] FIGS. 10A-F show plots of the fluorescence intensity (at λ=525 nm) of compounds 27-31 and […], respectively, as a function of the concentration in the presence of aggregated Aβ42 peptides (5 μM) in solution.

The test system of test [2] is amyloid plaques in human tissue from AD cases. As to the kind of experiment: Fluorescence imaging of amyloid plaques in tissue sections. To be noted: frozen AD tissue sections, probe solution 30 min, washed with water. The procedure:
FIGS. 11A-F depict fluorescence images of amyloid plaques in human tissue from AD cases. After the frozen tissue was sectioned and mounted to a glass slide, the tissue was exposed to a solution containing a fluorescent probe for 30 min. The sample was washed with water to eliminate non-specific staining of the tissue, and imaged using an inverted epi-fluorescence microscope. The images reveal the location of plaques that were stained with A) compound 27, B) compound 28, C) compound 29, D) compound 30, E) compound 31, or F) compound 33.

Test [3] concerns the target T2, aggregated Aβ(1-42) peptides (Homo sapiens, UniProt P05067).
T2 construct: preaggregated Aβ(1-42) peptides
As to the kind of experiment: Fluorescence of probes 27-31, 33 before and after mixing with aggregated Aβ42. Type of test: binding. To be noted: 4 μM probe; for Em. max (nm) after / Exc. max (nm) after / Fold increase (emission intensity after binding): 5 μM aggregated Aβ(1-42); for Em. max (nm) before / Exc. max (nm) before: nano-pure water (5% DMSO), without Aβ. The procedure:
Aggregated Aβ peptide was prepared by dissolving Aβ(1-42) in PBS pH 7.4 to a final concentration of 100 μM. This solution was magnetically stirred at 1200 rpm for 3 days at room temperature. The 100 μM Aβ(1-42) stock solution in PBS was aliquoted and frozen at −10° C. for up to 4 weeks without noticeable change in its property. 15 μL of the pre-aggregated Aβ(1-42) was added to 285 μL of the probe (5% DMSO in nano-pure water) to attain a final concentration of 5 μM Aβ(1-42) and 4 μM of the probe. The solution was transferred to a […] cuvette and the fluorescent measured. FIGS. 9A-F show fluorescence excitation spectra of Cmpds 27-31 and 33, respectively.
LeVine III, H., Protein Sci. 1993, 2, (3), 404-410. Along these lines, we compared the fluorescent properties of 27-31 or 33 in aqueous solution with or without the presence of aggregated Aβ42 peptides. Specifically, we measured the fluorescent properties of each dye at 4 μM concentration in nano pure water, before and after mixing with aggregated Aβ42 peptide (final concentration peptide=5 μM). As it is shown in table 5, in all cases we observed a significant increase (3 to 9-fold) in the intensity of the emission spectra of the probes upon association with the aggregated amyloid peptides. This intensity increase was also accompanied with a blue shift in the emission spectra of around 5-50 nm. […] FIG. 9C provides a representative example of the fluorescent properties of compound 29.

Where two headings read alike, the source gives them in different places.

T1 sequence (P05067 672-713 limits assumed): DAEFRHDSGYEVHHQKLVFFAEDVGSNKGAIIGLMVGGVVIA
T2 sequence (P05067 672-713 limits assumed): as above

With `COCCOCCOCCOC(=O)/C(C#N)=C/c1ccc2cc(N3CCCCC3)ccc2c1` [Compound 27, (E)-2-(2-(2-methoxyethoxyl)ethoxy)ethyl 2-cyano-3-(2-(piperidin-1-yl)napthalen-6-yl)acrylate], the Kd result in test [1] is “highest affinity”; in test [1] (read-out: Kd) it was 1.4 µM.
As to `COCCOCCOCCOC(=O)/C(C#N)=C/c1ccc2cc(N3CCN(C)CC3)ccc2c1` [Compound 28, (E)-2-(2-(2-methoxyethoxyl)ethoxy)ethyl 2-cyano-3-(2-(4-methylpiperazin-1-yl)napthalen-6-yl) acrylate], in test [1] (read-out: Kd), the Kd amounted to 4.6 µM. Also, the “Staining of amyloid plaques (fluorescence image)” value (from here on “Staining of amyloid plaques”) in test [2] is on record as “stained”. In addition, in test [3], the “Em. max (nm) after” value is listed as 530 nm, the “Exc. max (nm) after” value was determined as 385 nm, the “Fold increase (emission intensity after binding)” value (“Fold increase” below) came to 4.9 fold and the “Em. max (nm) before” value is on record as 580 nm. The “Exc. max (nm) before” value in test [3] worked out at 400 nm.
With `COCCOCCOCCOC(=O)/C(C#N)=C/c1ccc2cc(N3CCOCC3)ccc2c1` [Compound 29, (E)-2-(2-(2-methoxyethoxyl)ethoxy)ethyl 2-cyano-3-(2-morpholinonapthalen-6-yl)acrylate], the Kd in test [1] (read-out: Kd) turned out to be 13.8 µM. For the same molecule, the “Staining of amyloid plaques” value in test [2] is given as “stained”. In test [3], the “Em. max (nm) after” value worked out at 525 nm, the “Exc. max (nm) after” value is on record as 380 nm, the “Fold increase” value amounted to 5.1 fold and the “Em. max (nm) before” value was determined as 530 nm. The “Exc. max (nm) before” value in test [3] came to 400 nm.
For the molecule `COCCOCCOCCOC(=O)/C(C#N)=C/c1ccc2cc(NCCN3CCOCC3)ccc2c1` [Compound 30, (E)-2-(2-(2-methoxyethoxyl)ethoxy)ethyl 3-(2-(2-morpholinoethylamino)naphthalen-6-yl)-2-cyano acrylate], the Kd in test [1] (read-out: Kd) is 6.7 µM. For the same molecule, in test [2], the “Staining of amyloid plaques” value was “stained”. In test [3], the “Em. max (nm) after” value turned out to be 540 nm, the “Exc. max (nm) after” value came out at 430 nm, the “Fold increase” value came out at 2.9 fold and the “Em. max (nm) before” value came out at 570 nm. In test [3], the “Exc. max (nm) before” value turned out to be 430 nm.
`COCCOCCOCCOCCOC(=O)/C(C#N)=C/c1ccc2cc(N3CCCCC3)ccc2c1` [Compound 31, (E)-2-(2-(2-(2-methoxyethoxyl)ethoxy)ethoxy)ethyl 2-cyano-3-(2-(piperidin-1-yl)napthalen-6-yl) acrylate]: the Kd entry in test [1] is “highest affinity”; in test [1] (read-out: Kd), 1.6 µM.
Consider `N#C/C(=C\c1ccc2cc(N3CCCCC3)ccc2c1)C(=O)OCC(O)CO` (stereo not drawn) [Compound 33, (E)-2,3-dihydroxypropyl 2-cyano-3-(2-(piperidin-1-yl)naphthalene-6-yl)acrylate], for which the Kd entry in test [1] is reported as “highest affinity”. In addition, the Kd in test [1] (read-out: Kd) was determined as 1.6 µM. Further, the “Staining of amyloid plaques” value in test [2] is recorded as “stained”. Also, in test [3], the “Em. max (nm) after” value is recorded as 535 nm, the “Exc. max (nm) after” value was found to be 410 nm, the “Fold increase” value was determined as 7.2 fold and the “Em. max (nm) before” value was determined as 540 nm. In addition, in test [3], the “Exc. max (nm) before” value came to 410 nm.

Values taken from US9551722B2, “Amyloid binding agents” (The Regents of the University of California, priority 2009, dated 2017).
